# Assay results taken from PMC3063099 (Xenobiotica; the fate of foreign compounds in biological …, 2010).
# Like-named read-outs stand apart in the source and are kept apart here.
# Assays:
# CYP3A4 wild type [1] = molecular target: T1, CYP3A4 wild type (Homo sapiens, UniProt P08684); experiment: Titration-by-dilution monitored by FRET; format: binding; details: for Efficiency of FRET: wild type
# CYP3A4 mutant F213W [2] = molecular target: T2, CYP3A4 mutant F213W (Homo sapiens, UniProt P08684, F213W); experiment: Titration-by-dilution monitored by FRET; format: binding; details: for Efficiency of FRET: F213W
# CYP3A4 mutant F304W [3] = molecular target: T3, CYP3A4 mutant F304W (Homo sapiens, UniProt P08684, F304W); experiment: Titration-by-dilution monitored by FRET; format: binding; details: for Efficiency of FRET: F304W
# [4] = molecular target: T4, CYP3A4 mutant L211F/D214E (Homo sapiens, UniProt P08684, D214E/L211F); experiment: Titration-by-dilution monitored by FRET; format: binding; details: for Efficiency of FRET: L211F/D214E
# CYP3A4 wild type [5] = molecular target: T1, CYP3A4 wild type; experiment: Titration-by-dilution at excess substrate monitored by spin shift; format: binding
# CYP3A4 mutant F213W [6] = molecular target: T2, CYP3A4 mutant F213W; experiment: as above; format: binding
# CYP3A4 mutant F304W [7] = molecular target: T3, CYP3A4 mutant F304W; experiment: as above; format: binding
# [8] = molecular target: T4, CYP3A4 mutant L211F/D214E; experiment: as above; format: binding
# CYP3A4 wild type [9] = molecular target: T1, CYP3A4 wild type; experiment: Absorbance titration, substrate-induced spin shift; details: for Kd: human, pH 7.4; for nH (Hill coefficient): Hill equation fit
# CYP3A4 mutant F213W [10] = molecular target: T2, CYP3A4 mutant F213W; experiment: Absorbance titration, substrate-induced spin shift; details: for nH (Hill coefficient): Hill equation fit; for Kd: human, pH 7.4
# CYP3A4 mutant F304W [11] = molecular target: T3, CYP3A4 mutant F304W; experiment: Absorbance titration, substrate-induced spin shift; details: for nH (Hill coefficient): Hill equation fit; for Kd: human, pH 7.4
# [12] = molecular target: T4, CYP3A4 mutant L211F/D214E; experiment: Absorbance titration, substrate-induced spin shift; details: for nH (Hill coefficient): Hill equation fit; for Kd: human, pH 7.4
# CYP3A4 wild type [13] = molecular target: T1, CYP3A4 wild type; details: pH 7.4
# CYP3A4 mutant F213W [14] = molecular target: T2, CYP3A4 mutant F213W; details: pH 7.4
# CYP3A4 mutant F304W [15] = molecular target: T3, CYP3A4 mutant F304W; details: pH 7.4
# [16] = molecular target: T4, CYP3A4 mutant L211F/D214E; details: pH 7.4
# [17] = human, CYP3A4 wild type enzyme in buffer, pH 7.4
# [18] = equimolar enzyme-substrate mixture
# T3 sequence (P08684 whole entry F304W): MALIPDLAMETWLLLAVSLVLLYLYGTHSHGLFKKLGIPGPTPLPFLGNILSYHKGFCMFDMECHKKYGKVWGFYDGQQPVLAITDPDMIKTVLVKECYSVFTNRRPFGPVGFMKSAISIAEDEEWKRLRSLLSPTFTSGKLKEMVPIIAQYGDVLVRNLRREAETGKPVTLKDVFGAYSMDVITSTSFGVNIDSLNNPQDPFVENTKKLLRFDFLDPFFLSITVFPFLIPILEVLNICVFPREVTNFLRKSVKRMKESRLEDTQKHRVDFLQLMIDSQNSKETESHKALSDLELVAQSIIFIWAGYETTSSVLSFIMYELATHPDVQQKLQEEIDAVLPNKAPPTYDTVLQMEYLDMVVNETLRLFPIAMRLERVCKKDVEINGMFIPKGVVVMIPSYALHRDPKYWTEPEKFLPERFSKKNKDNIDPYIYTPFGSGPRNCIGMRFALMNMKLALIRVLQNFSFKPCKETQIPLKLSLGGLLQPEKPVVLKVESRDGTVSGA
# T2 sequence (P08684 whole entry F213W): as the sequence (P08684 whole entry F304W) above, with F213W, W304F counted along it
# T4 sequence (P08684 whole entry L211F/D214E): as the sequence (P08684 whole entry F304W) above, with L211F, D214E, W304F counted along it
# T1 sequence (P08684 whole entry): as the sequence (P08684 whole entry F304W) above, with W304F counted along it
structure (smiles),measurement,setting,value
"OCCCCc1ccc2ccc3cccc4ccc1c2c34 [1-PB, 1-pyrenebutanol]",Kd,CYP3A4 wild type [1],0.25 ± 0.11 µM
same,Kd,CYP3A4 wild type [1]; [17],5 ± 1.1 µM
same,Efficiency of FRET,CYP3A4 wild type [1]; [18],95.2 ± 5.7%
same,Efficiency of FRET,CYP3A4 wild type [1]; excess substrate (1:4),108.0 ± 1.2%
same,Efficiency of FRET,CYP3A4 mutant F213W [2]; [18],80.8 ± 26.4%
same,Efficiency of FRET,CYP3A4 mutant F213W [2]; excess substrate (1:5),109.0 ± 2.0%
same,Kd,"CYP3A4 mutant F213W [2]; KD1, F213W, equimolar enzyme-substrate mixture, FRET, 0.6 mg/ml HPCD",0.07 ± 0.04 µM
same,Efficiency of FRET,CYP3A4 mutant F304W [3]; [18],99.6 ± 7.8%
same,Efficiency of FRET,CYP3A4 mutant F304W [3]; excess substrate (1:6),109.0 ± 1.6%
same,Kd,"CYP3A4 mutant F304W [3]; KD1, F304W, equimolar enzyme-substrate mixture, FRET, 0.6 mg/ml HPCD",0.26 ± 0.08 µM
same,Kd,"[4]; KD1, L211F/D214E, equimolar enzyme-substrate mixture, FRET, 0.6 mg/ml HPCD",0.82 ± 0.43 µM
same,Efficiency of FRET,[4]; [18],108.4 ± 12.9%
same,Efficiency of FRET,[4]; excess substrate (1:6),83.4 ± 16.4%
same,Kd,CYP3A4 wild type [5]; [17],10.2 ± 1.2 µM
same,"Δhmax, maximal amplitude of the spin shift deduced from fitting","CYP3A4 wild type [5]; wild type, dilution at excess substrate (1:5)",49.7 ± 7.3%
same,"Δhmax, maximal amplitude of the spin shift deduced from fitting","CYP3A4 mutant F213W [6]; F213W, dilution at excess substrate (1:5)",40.0 ± 16%
same,Kd,"CYP3A4 mutant F213W [6]; human, CYP3A4 mutant F213W enzyme in buffer, pH 7.4",14.4 ± 1.5 µM
same,"Δhmax, maximal amplitude of the spin shift deduced from fitting","CYP3A4 mutant F304W [7]; F304W, dilution at excess substrate (1:5)",23.2 ± 14.0%
same,Kd,"CYP3A4 mutant F304W [7]; human, CYP3A4 mutant F304W enzyme in buffer, pH 7.4",11.4 ± 1.1 µM
same,"Δhmax, maximal amplitude of the spin shift deduced from fitting","[8]; L211F/D214E, dilution at excess substrate (1:5)",18.2 ± 7.1%
same,Kd,"[8]; human, CYP3A4 mutant L211F/D214E enzyme in buffer, pH 7.4",7.3 ± 2.9 µM
same,Kd,CYP3A4 wild type [9]; 0.1 m na-hepes,11.7 ± 2.4 µM
same,Kd,CYP3A4 wild type [9],12.6 µM
same,nH (Hill coefficient),"CYP3A4 wild type [9]; wild type, pH 7.4, 25 °C",1.67 ± 0.18
same,nH (Hill coefficient),"CYP3A4 wild type [9]; wild type, pH 7.4, 25 °C, listed as 1-pyrenebutanol",around 1.7
same,"Δhmax, amplitude of the substrate-induced spin shift","CYP3A4 wild type [9]; wild type, absorbance titration, pH 7.4, 25 °C",46.7 ± 4.9%
same,"FES, fraction of total spin shift caused by the binary complex ES","CYP3A4 wild type [9]; wild type, fit to improved sequential model",0
same,nH (Hill coefficient),"CYP3A4 mutant F213W [10]; F213W, pH 7.4, 25 °C",1.07 ± 0.16
same,nH (Hill coefficient),"CYP3A4 mutant F213W [10]; F213W, pH 7.4, 25 °C, listed as 1-pyrenebutanol",≤ 1.1
same,"Δhmax, amplitude of the substrate-induced spin shift","CYP3A4 mutant F213W [10]; F213W, absorbance titration, pH 7.4, 25 °C",57.0 ± 5.9%
same,"FES, fraction of total spin shift caused by the binary complex ES","CYP3A4 mutant F213W [10]; F213W, fit to improved sequential model, KD1 fixed",7.9 ±1.0%
same,Kd,CYP3A4 mutant F213W [10]; 0.1 m na-hepes,12.6 ± 4.6 µM
same,nH (Hill coefficient),"CYP3A4 mutant F304W [11]; F304W, pH 7.4, 25 °C",1.07 ± 0.12
same,nH (Hill coefficient),"CYP3A4 mutant F304W [11]; F304W, pH 7.4, 25 °C, listed as 1-pyrenebutanol",≤ 1.1
same,"Δhmax, amplitude of the substrate-induced spin shift","CYP3A4 mutant F304W [11]; F304W, absorbance titration, pH 7.4, 25 °C",57.7 ± 5.6%
same,"FES, fraction of total spin shift caused by the binary complex ES","CYP3A4 mutant F304W [11]; F304W, fit to improved sequential model, KD1 fixed",15.1 ± 0.8%
same,Kd,CYP3A4 mutant F304W [11]; 0.1 m na-hepes,10.7 ± 2 µM
same,nH (Hill coefficient),"[12]; L211F/D214E, pH 7.4, 25 °C",1.07 ± 0.17
same,nH (Hill coefficient),"[12]; L211F/D214E, pH 7.4, 25 °C, listed as 1-pyrenebutanol",≤ 1.1
same,"Δhmax, amplitude of the substrate-induced spin shift","[12]; L211F/D214E, absorbance titration, pH 7.4, 25 °C",39.4 ± 5.1%
same,"FES, fraction of total spin shift caused by the binary complex ES","[12]; L211F/D214E, fit to improved sequential model, KD1 fixed",21.0 ± 5.7%
same,Kd,[12]; 0.1 m na-hepes,12.1 ± 1.8 µM
"O=c1cc(-c2ccccc2)oc2c1ccc1ccccc12 [ANF, α-naphthoflavone]","Δhmax, amplitude of the substrate-induced spin shift",CYP3A4 wild type [13],40.0 ± 2.5%
same,"Δhmax, amplitude of the substrate-induced spin shift",CYP3A4 mutant F213W [14],33.5 ± 2.1%
same,"Δhmax, amplitude of the substrate-induced spin shift",CYP3A4 mutant F304W [15],36.0 ± 5.2%
same,"Δhmax, amplitude of the substrate-induced spin shift",[16],27.9 ± 2.2%
same,Kd,CYP3A4 wild type [9]; CYP3A4 wild type enzyme in buffer,3.66 ± 0.7 µM
same,nH (Hill coefficient),"CYP3A4 wild type [9]; wild type, pH 7.4, 25 °C",2.04 ± 0.30
same,nH (Hill coefficient),"CYP3A4 mutant F213W [10]; F213W, pH 7.4, 25 °C",1.52 ± 0.30
same,Kd,CYP3A4 mutant F213W [10]; CYP3A4 mutant F213W enzyme in buffer,3.5 ± 1.36 µM
same,nH (Hill coefficient),"CYP3A4 mutant F304W [11]; F304W, pH 7.4, 25 °C",2.10 ± 0.20
same,Kd,CYP3A4 mutant F304W [11]; CYP3A4 mutant F304W enzyme in buffer,3.63 ± 1.46 µM
same,nH (Hill coefficient),"[12]; L211F/D214E, pH 7.4, 25 °C",1.68 ± 0.16
same,Kd,[12]; CYP3A4 mutant L211F/D214E enzyme in buffer,3.67 ± 1.16 µM
